{
  "source": "patent US6562759B1",
  "about": "“Substituted phenyl uracils” (Bayer Aktiengesellschaft, priority 1999, dated 2003)",
  "key": {"weeds [1]": {"tested_on": "weeds", "test": "Post-emergence Test", "assay_type": "in vivo", "conditions": "test plants of height 5-15 cm sprayed, rated after three weeks vs untreated control", "procedure": "Post-emergence Test Solvent: 5 parts by weight of acetone Emulsifier: 1 part by weight of alkylaryl polyglycol ether To produce a suitable preparation of active compound, 1 part by weight of active compound is mixed with the stated amount of solvent, the stated amount of emulsifier is added and the concentrate is diluted with water to the desired concentration. Test plants which have a height of 5-15 cm are sprayed with the preparation of active compound such that the particular amounts of active compound desired are applied per unit area. The concentration of the spray liquor is chosen so that the particular amounts of active compound desired are applied in 1000 l of water/ha. After three weeks, the degree of damage to the plants is rated in % damage in comparison to the development of the untreated control. The figures denote: 0%=no effect (like untreated control) 100%=total destruction"}, "weeds [2]": {"tested_on": "weeds", "test": "Pre-emergence Test", "assay_type": "in vivo", "conditions": "soil sprayed about 24 hours after sowing, rated after three weeks vs untreated control", "procedure": "Pre-emergence Test Solvent: 5 parts by weight of acetone Emulsifier 1 part by weight of alkylaryl polyglycol ether To produce a suitable preparation of active compound, 1 part by weight of active compound is mixed with the stated amount of solvent, the stated amount of emulsifier is added and the concentrate is diluted with water to the desired concentration. Seeds of the test plants are sown in normal soil. After about 24 hours, the soil is sprayed with the preparation of active compound such that the particular amount of active compound desired is applied per unit area. The concentration of the spray liquor is chosen so that the particular amount of active compound desired is applied in 1000 litres of water per hectare. After three weeks, the degree of damage to the plants is rated in % damage in comparison to the development of the untreated control. The figures denote: 0%=no effect (like untreated control) 100%=total destruction"}},
  "data": [
    {"smiles": "Cn1c(C(F)(F)F)cc(=O)n(-c2cc(C3OCCO3)c(C#N)cc2F)c1=O", "note": "[Preparation Example 1, 1-[4-cyano-2-fluoro-5-(1,3-dioxolan-2-yl)-phenyl]-3,6-dihydro-2,6-dioxo-3-methyl-4-trifluoromethyl-1(2H)-pyrimidine]", "values": [
      {"measurement": "activity against weeds (degree of damage to the plants)", "setting": "weeds [1]", "value": "very strong activity against weeds"},
      {"measurement": "activity against weeds (degree of damage to the plants)", "setting": "weeds [2]", "value": "very strong activity against weeds"}
    ]}
  ]
}
